Data taken from patent US20030157162A1, “Liposome-encapsulated opioid analgesics” (priority 2002, published 2003).
Structures can show the parent of a compound that is named as a salt.

Legend:
[1] = In vivo pharmacokinetics in dogs (ELISA, NONMEM model, trapezoidal AUC); design: species or system dog
From the text: Twenty-five adult beagles (n=14; 12 female, 2 male) and hounds (n=11; 9 female, 2 male) that were 1 to 5 years old (median age 1.5 years) and weighed between 6.9 kg and 35.7 kg (median weight=9.46 kg) were used. Normal health status and organ function were confirmed by physical exam and a complete blood count and serum chemistry profile prior to inclusion in the study. None of the animals received any medications in the 2 weeks prior to study. Animals were housed individually (hounds) or in groups of 2 to 4 (beagles), and were fed a commercial diet and water ad libitum throughout the study.
(§1) Two doses of liposome-encapsulated oxymorphone and two equipotent doses of standard pharmaceutical oxymorphone were investigated. One dose of the liposomal vehicle was also investigated to confirm the absence of pharmacodynamic properties of the vehicle. Each dog received only 1 treatment and was then removed from further study. Treatment groups were as follows: Group 1 (n=6) liposome-encapsulated oxymorphone (1.0 mg/kg); Group 2 (n=5) liposome-encapsulated oxymorphone (0.5 mg/kg); Group 3 (n=6) standard pharmaceutical oxymorphone (NUMORPHAN®, Endo Pharmaceuticals Inc., Chadds Ford, Pa.) (0.1 mg/kg); Group 4 (n=6) standard pharmaceutical oxymorphone (0.05 mg/kg); Group 5 (n=2) liposomal vehicle (0.7 ml). Liposome-encapsulated oxymorphone or vehicle were drawn from a stock solution on ice via an 18 gauge needle attached to a 1- or 3-ml syringe and administered subcutaneously slowly via a 23 gauge needle. All injections were made in a shaved area of the thigh such that potential skin reactions to the liposomal preparations could be assessed.
A 1 ml blood sample was collected percutaneously from the left and right cephalic or saphenous veins, in rotating order. In groups 1 and 2 (liposome-encapsulated oxymorphone groups), blood was collected before and 0.5, 1, 2, 4, 8, 12, 16, and 24 hours after drug administration, and daily for 5 days at the same time of day as treatment administration had occurred. In groups 3, 4, and 5 (standard oxymorphone and liposomal vehicle groups), blood was collected before and 0.5, 1, 2, 4, 8, 12, and 24 hours after drug administration. Blood samples were transferred to centrifuge tubes and held on ice for a maximum of 4 hours, then centrifuged at 5° C. for 10 minutes at 5000×g. Serum was stored at −70° C. until analysis.
Oxymorphone concentrations in serum were quantitated using a commercial ELISA (Neogen Inc, Lexington, Ky.).
Plasma oxymorphone concentrations were used in pharmacokinetic model building using a non-linear, mixed effect computer program (NONMEM User's Guides, (1989-98) Beal and Sheiner (Eds.) GloboMax, LLC, Hanover, Md.). The data from all animals were evaluated concurrently. The assumption was made that the subcutaneous injection of the standard and liposomal oxymorphone delivered drug to an extravascular compartment from which unidirectional absorption into the blood occurred. In the case of the liposomal preparation, an additional, unidirectional rate constant of flux from the liposome to the surrounding subcutaneous compartment was assumed.
This was tested in the pharmacokinetic model construction with allowance for a variable (fitted) fraction of the liposomal dose administered directly to the subcutaneous space in the aqueous carrier.
The NONMEM model included an intersubject variability for the parameters of distribution volume, fraction of drug delivered to of the liposome, and drug flux into and out of the plasma. The first-order rate of drug loss from the liposome was assumed to be a physiochemical constant, and was not allowed to vary between animals. Animal weight and sex were tested as continuous and categorical covariates affecting volume and clearance. Pharmacokinetic models that included a tissue distribution compartment were over-parameterized and were discarded. […]

[2] = test system: dogs; assay: Sedation score, heart rate, respiratory rate, temperature and skin reaction in dogs; type: in vivo, dog
Protocol: as §1
A sedation score was recorded on each dog prior to drug administration and at the same times as venous blood collection. The sedation score included recording of heart rate by auscultation, respiratory rate by observation of movement of the thoracic wall, and rectal temperature via a digital rectal thermometer. The same person assessed sedation scores throughout the study. Changes in sedation score, heart rate, respiratory rate, and temperature were analyzed using repeated measures ANOVA, with p<0.05 considered significant.

CN1CC[C@]23c4c5ccc(O)c4O[C@H]2C(=O)CC[C@@]3(O)[C@H]1C5 [standard oxymorphone, oxymorphone hydrochloride]
AUC (dose-normalised, median) ([1]; 0.05 mg/kg): 128.0 (ng-hr/L)/mg/kg)
K23 (from subcutaneous tissue to systemic tissue) ([1]; 0.05 mg/kg): 0.400 h⁻¹
K30 (from systemic tissue to excretion from body) ([1]; 0.05 mg/kg): 5.40 h⁻¹
V ([1]; 0.05 mg/kg): 2.03 L
AUC (dose-normalised, median) ([1]; 0.1 mg/kg): 135.9 (ng-hr/L)/mg/kg)
K23 (from subcutaneous tissue to systemic tissue) ([1]; 0.1 mg/kg): 0.348 h⁻¹
K30 (from systemic tissue to excretion from body) ([1]; 0.1 mg/kg): 7.19 h⁻¹
V ([1]; 0.1 mg/kg): 1.50 L
time of peak sedation score ([2]; 0.05 and 0.1 mg/kg): 30 min
respiratory rate and rectal temperature compared to baseline ([2]; either dose): moderate and statistically insignificant decrease
local skin reactions at the site of injection ([2]; s.c.): no local skin reactions
heart rate from baseline to 2 hours after drug administration ([2]; within clinically normal range): significant decrease
